The target of series [1] is T1, Toll-like receptor 8 (Homo sapiens) (UniProt Q9NR97).
T1 sequence (whole entry): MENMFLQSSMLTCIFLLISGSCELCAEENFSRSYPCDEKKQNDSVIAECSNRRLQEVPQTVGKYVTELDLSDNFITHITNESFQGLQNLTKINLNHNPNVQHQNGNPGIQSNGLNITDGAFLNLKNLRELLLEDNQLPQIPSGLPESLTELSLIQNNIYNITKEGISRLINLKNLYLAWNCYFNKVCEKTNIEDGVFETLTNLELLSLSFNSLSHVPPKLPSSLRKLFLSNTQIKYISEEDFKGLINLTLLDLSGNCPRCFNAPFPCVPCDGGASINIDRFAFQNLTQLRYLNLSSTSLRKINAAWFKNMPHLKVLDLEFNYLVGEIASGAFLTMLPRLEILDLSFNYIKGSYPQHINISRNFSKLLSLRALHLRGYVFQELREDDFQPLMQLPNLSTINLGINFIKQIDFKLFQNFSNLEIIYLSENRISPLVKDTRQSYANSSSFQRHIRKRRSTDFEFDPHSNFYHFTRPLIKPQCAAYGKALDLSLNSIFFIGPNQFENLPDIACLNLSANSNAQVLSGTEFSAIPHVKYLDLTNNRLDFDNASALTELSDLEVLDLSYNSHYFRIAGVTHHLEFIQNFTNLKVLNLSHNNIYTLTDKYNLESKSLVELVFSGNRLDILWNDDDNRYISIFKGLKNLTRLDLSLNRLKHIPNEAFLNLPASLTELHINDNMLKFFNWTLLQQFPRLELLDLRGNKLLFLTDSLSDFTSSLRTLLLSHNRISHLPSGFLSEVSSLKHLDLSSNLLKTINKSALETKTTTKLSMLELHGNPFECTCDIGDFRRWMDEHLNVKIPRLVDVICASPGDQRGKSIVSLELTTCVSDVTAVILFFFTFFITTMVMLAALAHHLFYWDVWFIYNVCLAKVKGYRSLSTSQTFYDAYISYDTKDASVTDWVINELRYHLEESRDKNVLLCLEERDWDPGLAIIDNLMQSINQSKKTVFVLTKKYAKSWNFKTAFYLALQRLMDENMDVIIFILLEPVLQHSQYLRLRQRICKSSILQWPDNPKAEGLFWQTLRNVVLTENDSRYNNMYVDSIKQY
Kind of series: Activation of human TLR8 expressed in HEK293 cells assessed as increase in NF-kappaB activation at 100 ug/ml by SEAP assay. The class given is cell-based.

Series [2] can be described thus: Stability in 1% human serum assessed as full length product after 10 mins. The following applies: read-out: Stability. The class given is ADME, cell-free.
Series [3] deals with T2, Toll-like receptor 7 (Homo sapiens) (UniProt Q9NYK1).
T2 sequence (whole entry): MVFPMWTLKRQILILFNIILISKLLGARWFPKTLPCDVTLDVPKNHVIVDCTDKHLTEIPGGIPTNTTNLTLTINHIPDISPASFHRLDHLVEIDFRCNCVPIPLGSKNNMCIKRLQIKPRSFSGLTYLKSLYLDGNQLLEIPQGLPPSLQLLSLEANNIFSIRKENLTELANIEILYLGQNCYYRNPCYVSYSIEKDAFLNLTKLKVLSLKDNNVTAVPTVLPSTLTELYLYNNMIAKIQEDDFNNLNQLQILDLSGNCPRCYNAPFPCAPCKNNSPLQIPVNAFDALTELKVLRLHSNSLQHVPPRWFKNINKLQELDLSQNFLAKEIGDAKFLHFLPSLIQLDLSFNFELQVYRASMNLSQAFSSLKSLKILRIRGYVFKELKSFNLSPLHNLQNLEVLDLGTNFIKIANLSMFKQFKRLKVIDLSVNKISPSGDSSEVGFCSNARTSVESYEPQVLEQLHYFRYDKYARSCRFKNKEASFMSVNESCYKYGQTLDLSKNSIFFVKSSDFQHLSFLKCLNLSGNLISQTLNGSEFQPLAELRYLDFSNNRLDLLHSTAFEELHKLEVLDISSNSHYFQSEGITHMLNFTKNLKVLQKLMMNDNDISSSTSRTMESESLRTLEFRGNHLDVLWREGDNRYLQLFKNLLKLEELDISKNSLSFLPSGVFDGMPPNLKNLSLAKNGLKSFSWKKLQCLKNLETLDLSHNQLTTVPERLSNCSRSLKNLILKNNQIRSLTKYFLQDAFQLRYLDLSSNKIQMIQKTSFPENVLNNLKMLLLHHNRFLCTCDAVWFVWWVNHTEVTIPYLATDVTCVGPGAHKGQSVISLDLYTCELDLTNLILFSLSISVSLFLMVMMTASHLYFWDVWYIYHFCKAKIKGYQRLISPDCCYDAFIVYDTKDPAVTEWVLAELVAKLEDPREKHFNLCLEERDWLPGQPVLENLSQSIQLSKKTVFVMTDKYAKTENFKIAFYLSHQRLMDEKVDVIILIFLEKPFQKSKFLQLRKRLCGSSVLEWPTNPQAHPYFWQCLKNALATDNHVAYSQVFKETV
Kind of series: Activation of human TLR7 expressed in HEK293 cells assessed as increase in NF-kappaB activation at 100 ug/ml by SEAP assay. In kind it is cell-based.

Activity calls are given as the source filed them. The rule behind the calls is not given here.

Regarding `Nc1ccn([C@@H]2O[C@H](COP(O)(=S)O[C@H]3[C@@H](O)[C@H](n4cnc5c(=O)[nH]c(N)nc54)O[C@@H]3COP(O)(=S)O[C@H]3[C@@H](O)[C@H](n4ccc(=O)[nH]c4=O)O[C@@H]3COCCCCCO)[C@@H](OP(O)(=S)OC[C@H]3O[C@@H](n4ccc(=O)[nH]c4=O)[C@H](O)[C@@H]3OP(O)(=S)OC[C@H]3O[C@@H](n4cnc5c(=O)[nH]c(N)nc54)[C@H](O)[C@@H]3OP(O)(=S)OC[C@H]3O[C@@H](n4ccc(N)nc4=O)[C@H](O)[C@@H]3OP(O)(=S)OC[C@H]3O[C@@H](n4ccc(=O)[nH]c4=O)[C@H](O)[C@@H]3OP(O)(=S)OC[C@H]3O[C@@H](n4ccc(=O)[nH]c4=O)[C@H](O)[C@@H]3OP(O)(=S)OC[C@H]3O[C@@H](n4cnc5c(=O)[nH]c(N)nc54)[C@H](O)[C@@H]3OP(O)(=S)OC[C@H]3O[C@@H](n4ccc(=O)[nH]c4=O)[C@H](O)[C@@H]3OP(O)(=S)OC[C@H]3O[C@@H](n4cnc5c(=O)[nH]c(N)nc54)[C@H](O)[C@@H]3OP(O)(=S)OCC(O)COP(O)(=S)O[C@H]3[C@@H](O)[C@H](n4cnc5c(=O)[nH]c(N)nc54)O[C@@H]3COP(O)(=S)O[C@H]3[C@@H](O)[C@H](n4ccc(=O)[nH]c4=O)O[C@@H]3COP(O)(=S)O[C@H]3[C@@H](O)[C@H](n4cnc5c(=O)[nH]c(N)nc54)O[C@@H]3COP(O)(=S)O[C@H]3[C@@H](O)[C@H](n4ccc(=O)[nH]c4=O)O[C@@H]3COP(O)(=S)O[C@H]3[C@@H](O)[C@H](n4ccc(=O)[nH]c4=O)O[C@@H]3COP(O)(=S)O[C@H]3[C@@H](O)[C@H](n4ccc(N)nc4=O)O[C@@H]3COP(O)(=S)O[C@H]3[C@@H](O)[C@H](n4cnc5c(=O)[nH]c(N)nc54)O[C@@H]3COP(O)(=S)O[C@H]3[C@@H](O)[C@H](n4ccc(=O)[nH]c4=O)O[C@@H]3COP(O)(=S)O[C@H]3[C@@H](O)[C@H](n4ccc(N)nc4=O)O[C@@H]3COP(O)(=S)O[C@H]3[C@@H](O)[C@H](n4cnc5c(=O)[nH]c(N)nc54)O[C@@H]3COP(O)(=S)O[C@H]3[C@@H](O)[C@H](n4ccc(=O)[nH]c4=O)O[C@@H]3COCCCCCO)[C@H]2O)c(=O)n1` (some centres undefined), the outcome in series [1] was Active. For the same compound, the remaining at 10 min in series [2] was determined as 82%. Besides, the result in series [3] was inactive.

`Nc1ccn([C@@H]2O[C@H](COP(O)(=S)O[C@H]3[C@@H](O)[C@H](n4ccc(N)nc4=O)O[C@@H]3COP(O)(=S)O[C@H]3[C@@H](O)[C@H](n4cnc5c(=O)[nH]c(N)nc54)O[C@@H]3COP(O)(=S)O[C@H]3[C@@H](O)[C@H](n4ccc(=O)[nH]c4=O)O[C@@H]3COP(O)(=S)O[C@H]3[C@@H](O)[C@H](n4ccc(N)nc4=O)O[C@@H]3COP(O)(=S)O[C@H]3[C@@H](O)[C@H](n4cnc5c(=O)[nH]c(N)nc54)O[C@@H]3COP(O)(=S)O[C@H]3[C@@H](O)[C@H](n4ccc(=O)[nH]c4=O)O[C@@H]3CO)[C@@H](OP(O)(=S)OC[C@H]3O[C@@H](n4ccc(=O)[nH]c4=O)[C@H](O)[C@@H]3OP(O)(=S)OC[C@H]3O[C@@H](n4ccc(=O)[nH]c4=O)[C@H](O)[C@@H]3OP(O)(=S)OC[C@H]3O[C@@H](n4ccc(=O)[nH]c4=O)[C@H](O)[C@@H]3OP(O)(=S)OC[C@H]3O[C@@H](n4cnc5c(=O)[nH]c(N)nc54)[C@H](O)[C@@H]3OP(O)(=S)OCC(O)COP(O)(=S)O[C@H]3[C@@H](O)[C@H](n4cnc5c(=O)[nH]c(N)nc54)O[C@@H]3COP(O)(=S)O[C@H]3[C@@H](O)[C@H](n4ccc(=O)[nH]c4=O)O[C@@H]3COP(O)(=S)O[C@H]3[C@@H](O)[C@H](n4ccc(=O)[nH]c4=O)O[C@@H]3COP(O)(=S)O[C@H]3[C@@H](O)[C@H](n4ccc(=O)[nH]c4=O)O[C@@H]3COP(O)(=S)O[C@H]3[C@@H](O)[C@H](n4ccc(N)nc4=O)O[C@@H]3COP(O)(=S)O[C@H]3[C@@H](O)[C@H](n4ccc(N)nc4=O)O[C@@H]3COP(O)(=S)O[C@H]3[C@@H](O)[C@H](n4cnc5c(=O)[nH]c(N)nc54)O[C@@H]3COP(O)(=S)O[C@H]3[C@@H](O)[C@H](n4ccc(=O)[nH]c4=O)O[C@@H]3COP(O)(=S)O[C@H]3[C@@H](O)[C@H](n4ccc(N)nc4=O)O[C@@H]3COP(O)(=S)O[C@H]3[C@@H](O)[C@H](n4cnc5c(=O)[nH]c(N)nc54)O[C@@H]3COP(O)(=S)O[C@H]3[C@@H](O)[C@H](n4ccc(=O)[nH]c4=O)O[C@@H]3CO)[C@H]2O)c(=O)n1` (some centres undefined): the result in series [1] was Active. For the same compound, the remaining at 10 min in series [2] amounted to 66%. Moreover, the result in series [3] was inactive.

For `Nc1nc2c(ncn2[C@@H]2O[C@H](COP(O)(=S)O[C@H]3[C@@H](O)[C@H](n4ccc(=O)[nH]c4=O)O[C@@H]3COP(O)(=S)O[C@H]3[C@@H](O)[C@H](n4ccc(=O)[nH]c4=O)O[C@@H]3COP(O)(=S)O[C@H]3[C@@H](O)[C@H](n4ccc(=O)[nH]c4=O)O[C@@H]3COP(O)(=S)O[C@H]3[C@@H](O)[C@H](n4cnc5c(=O)[nH]c(N)nc54)O[C@@H]3COP(O)(=S)O[C@H]3[C@@H](O)[C@H](n4ccc(=O)[nH]c4=O)O[C@@H]3COP(O)(=S)O[C@H]3[C@@H](O)[C@H](n4ccc(=O)[nH]c4=O)O[C@@H]3COP(O)(=S)O[C@H]3[C@@H](O)[C@H](n4cnc5c(=O)[nH]c(N)nc54)O[C@@H]3COP(O)(=S)O[C@H]3[C@@H](O)[C@H](n4cnc5c(=O)[nH]c(N)nc54)O[C@@H]3COP(O)(=S)O[C@H]3[C@@H](O)[C@H](n4ccc(=O)[nH]c4=O)O[C@@H]3COP(O)(=S)O[C@H]3[C@@H](O)[C@H](n4ccc(=O)[nH]c4=O)O[C@@H]3CO)[C@@H](OP(O)(=S)OCC(O)COP(O)(=S)O[C@H]3[C@@H](O)[C@H](n4cnc5c(=O)[nH]c(N)nc54)O[C@@H]3COP(O)(=S)O[C@H]3[C@@H](O)[C@H](n4ccc(=O)[nH]c4=O)O[C@@H]3COP(O)(=S)O[C@H]3[C@@H](O)[C@H](n4ccc(=O)[nH]c4=O)O[C@@H]3COP(O)(=S)O[C@H]3[C@@H](O)[C@H](n4ccc(=O)[nH]c4=O)O[C@@H]3COP(O)(=S)O[C@H]3[C@@H](O)[C@H](n4cnc5c(=O)[nH]c(N)nc54)O[C@@H]3COP(O)(=S)O[C@H]3[C@@H](O)[C@H](n4ccc(=O)[nH]c4=O)O[C@@H]3COP(O)(=S)O[C@H]3[C@@H](O)[C@H](n4ccc(=O)[nH]c4=O)O[C@@H]3COP(O)(=S)O[C@H]3[C@@H](O)[C@H](n4cnc5c(=O)[nH]c(N)nc54)O[C@@H]3COP(O)(=S)O[C@H]3[C@@H](O)[C@H](n4cnc5c(=O)[nH]c(N)nc54)O[C@@H]3COP(O)(=S)O[C@H]3[C@@H](O)[C@H](n4ccc(=O)[nH]c4=O)O[C@@H]3COP(O)(=S)O[C@H]3[C@@H](O)[C@H](n4ccc(=O)[nH]c4=O)O[C@@H]3CO)[C@H]2O)c(=O)[nH]1` (some centres undefined), the outcome in series [1] was Active. The remaining at 10 min in series [2] was 94%. The outcome in series [3] was inactive.

The record behind these values is ChEMBL document CHEMBL1156502, “Stabilized immune modulatory RNA compounds as agonists of Toll-like receptors 7 and 8” (Proc Natl Acad Sci U S A, 2007).
